Experimental data published in ChEMBL document CHEMBL3994622, “Design and synthesis of new RAF kinase-inhibiting antiproliferative quinoline derivatives. Part 2: Diarylurea derivatives” (Eur J Med Chem, 2017).

Experiments:
Format in all cases: functional
[1] = tested on: CCRF-CEM; assay: Growth inhibition of human CCRF-CEM cells incubated for 48 hrs by sulforhodamine B assay
[2] = tested on: HL-60(TB); assay: Growth inhibition of human HL-60(TB) cells incubated for 48 hrs by sulforhodamine B assay; conditions: HL-60, 48 h
[3] = tested on: MOLT-4; assay: Growth inhibition of human MOLT4 cells incubated for 48 hrs by sulforhodamine B assay; conditions: MOLT-4, 48 h
[4] = tested on: RPMI-8226; assay: Growth inhibition of human RPMI8226 cells incubated for 48 hrs by sulforhodamine B assay; conditions: RPMI-8226, 48 h
[5] = tested on: SR; assay: Growth inhibition of human SR cells incubated for 48 hrs by sulforhodamine B assay
[6] = tested on: A549; assay: Growth inhibition of human A549/ATCC cells incubated for 48 hrs by sulforhodamine B assay; conditions: A549, 48 h
[7] = tested on: EKVX; assay: Growth inhibition of human EKVX cells incubated for 48 hrs by sulforhodamine B assay
[8] = tested on: HOP-62; assay: Growth inhibition of human HOP62 cells incubated for 48 hrs by sulforhodamine B assay; conditions: HOP-62, 48 h
[9] = tested on: NCI-H226; assay: Growth inhibition of human NCI-H226 cells incubated for 48 hrs by sulforhodamine B assay; conditions: NCI-H226, 48 h
[10] = tested on: NCI-H23; assay: Growth inhibition of human NCI-H23 cells incubated for 48 hrs by sulforhodamine B assay; conditions: NCI-H23, 48 h
[11] = tested on: NCI-H322M; assay: Growth inhibition of human NCI-H322M cells incubated for 48 hrs by sulforhodamine B assay
[12] = tested on: NCI-H460; assay: Growth inhibition of human NCI-H460 cells incubated for 48 hrs by sulforhodamine B assay; conditions: NCI-H460, 48 h
[13] = tested on: NCI-H522; assay: Growth inhibition of human NCI-H522 cells incubated for 48 hrs by sulforhodamine B assay; conditions: NCI-H522, 48 h
[14] = tested on: COLO 205; assay: Growth inhibition of human COLO205 cells incubated for 48 hrs by sulforhodamine B assay; conditions: COLO 205, 48 h
[15] = tested on: HCT-116; assay: Growth inhibition of human HCT116 cells incubated for 48 hrs by sulforhodamine B assay; conditions: HCT-116, 48 h
[16] = tested on: HCT-15; assay: Growth inhibition of human HCT15 cells incubated for 48 hrs by sulforhodamine B assay; conditions: HCT-15, 48 h
[17] = tested on: HT-29; assay: Growth inhibition of human HT-29 cells incubated for 48 hrs by sulforhodamine B assay; conditions: HT-29, 48 h
[18] = tested on: KM12; assay: Growth inhibition of human KM12 cells incubated for 48 hrs by sulforhodamine B assay; conditions: KM12, 48 h
[19] = tested on: SW-620; assay: Growth inhibition of human SW620 cells incubated for 48 hrs by sulforhodamine B assay; conditions: SW-620, 48 h
[20] = tested on: SF-268; assay: Growth inhibition of human SF268 cells incubated for 48 hrs by sulforhodamine B assay; conditions: SF-268, 48 h
[21] = tested on: SF-295; assay: Growth inhibition of human SF295 cells incubated for 48 hrs by sulforhodamine B assay; conditions: SF-295, 48 h
[22] = tested on: SF-539; assay: Growth inhibition of human SF539 cells incubated for 48 hrs by sulforhodamine B assay; conditions: SF-539, 48 h
[23] = tested on: SNB-19; assay: Growth inhibition of human SNB19 cells incubated for 48 hrs by sulforhodamine B assay; conditions: SNB-19, 48 h
[24] = tested on: SNB-75; assay: Growth inhibition of human SNB75 cells incubated for 48 hrs by sulforhodamine B assay; conditions: SNB-75, 48 h
[25] = tested on: U-251; assay: Growth inhibition of human U251 cells incubated for 48 hrs by sulforhodamine B assay; conditions: U-251, 48 h
[26] = tested on: LOX IMVI; assay: Growth inhibition of human LOXIMVI cells incubated for 48 hrs by sulforhodamine B assay
[27] = tested on: Malme-3M; assay: Growth inhibition of human MALME-3M cells incubated for 48 hrs by sulforhodamine B assay
[28] = tested on: M14; assay: Growth inhibition of human M14 cells incubated for 48 hrs by sulforhodamine B assay; conditions: M14, 48 h
[29] = tested on: MDA-MB-435; assay: Growth inhibition of human MDA-MB-435 cells incubated for 48 hrs by sulforhodamine B assay; conditions: MDA-MB-435, 48 h
[30] = tested on: SK-MEL-2; assay: Growth inhibition of human SK-MEL-2 cells incubated for 48 hrs by sulforhodamine B assay; conditions: SK-MEL-2, 48 h
[31] = tested on: SK-MEL-28; assay: Growth inhibition of human SK-MEL-28 cells incubated for 48 hrs by sulforhodamine B assay; conditions: SK-MEL-28, 48 h
[32] = tested on: SK-MEL-5; assay: Growth inhibition of human SK-MEL-5 cells incubated for 48 hrs by sulforhodamine B assay; conditions: SK-MEL-5, 48 h
[33] = tested on: UACC-257; assay: Growth inhibition of human UACC257 cells incubated for 48 hrs by sulforhodamine B assay; conditions: UACC-257, 48 h
[34] = tested on: UACC-62; assay: Growth inhibition of human UACC62 cells incubated for 48 hrs by sulforhodamine B assay; conditions: UACC-62, 48 h
[35] = tested on: IGROV-1; assay: Growth inhibition of human IGROV1 cells incubated for 48 hrs by sulforhodamine B assay; conditions: IGROV-1, 48 h
[36] = tested on: OVCAR-3; assay: Growth inhibition of human OVCAR3 cells incubated for 48 hrs by sulforhodamine B assay; conditions: OVCAR-3, 48 h
[37] = tested on: OVCAR-4; assay: Growth inhibition of human OVCAR4 cells incubated for 48 hrs by sulforhodamine B assay; conditions: OVCAR-4, 48 h
[38] = tested on: OVCAR-5; assay: Growth inhibition of human OVCAR5 cells incubated for 48 hrs by sulforhodamine B assay; conditions: OVCAR-5, 48 h
[39] = tested on: OVCAR-8; assay: Growth inhibition of human OVCAR8 cells incubated for 48 hrs by sulforhodamine B assay; conditions: OVCAR-8, 48 h
[40] = tested on: SK-OV-3; assay: Growth inhibition of human SKOV3 cells incubated for 48 hrs by sulforhodamine B assay; conditions: SK-OV-3, 48 h
[41] = tested on: 786-0; assay: Growth inhibition of human 786-0 cells incubated for 48 hrs by sulforhodamine B assay; conditions: 786-0, 48 h
[42] = tested on: A498; assay: Growth inhibition of human A498 cells incubated for 48 hrs by sulforhodamine B assay; conditions: A498, 48 h
[43] = tested on: ACHN; assay: Growth inhibition of human ACHN cells incubated for 48 hrs by sulforhodamine B assay
[44] = tested on: CAKI-1; assay: Growth inhibition of human Caki1 cells incubated for 48 hrs by sulforhodamine B assay; conditions: CAKI-1, 48 h
[45] = tested on: RXF 393; assay: Growth inhibition of human RXF393 cells incubated for 48 hrs by sulforhodamine B assay; conditions: RXF 393, 48 h
[46] = tested on: SN12C; assay: Growth inhibition of human SN12C cells incubated for 48 hrs by sulforhodamine B assay
[47] = tested on: TK-10; assay: Growth inhibition of human TK10 cells incubated for 48 hrs by sulforhodamine B assay; conditions: TK-10, 48 h
[48] = tested on: UO-31; assay: Growth inhibition of human UO31 cells incubated for 48 hrs by sulforhodamine B assay; conditions: UO-31, 48 h
[49] = tested on: PC-3; assay: Growth inhibition of human PC3 cells incubated for 48 hrs by sulforhodamine B assay; conditions: PC-3, 48 h
[50] = tested on: DU-145; assay: Growth inhibition of human DU145 cells incubated for 48 hrs by sulforhodamine B assay; conditions: DU-145, 48 h
[51] = tested on: MDA-MB-231; assay: Growth inhibition of human MDA-MB-231 cells incubated for 48 hrs by sulforhodamine B assay; conditions: MDA-MB-231, 48 h
[52] = tested on: Hs-578T; assay: Growth inhibition of human Hs 578T cells incubated for 48 hrs by sulforhodamine B assay
[53] = tested on: BT-549; assay: Growth inhibition of human BT549 cells incubated for 48 hrs by sulforhodamine B assay; conditions: BT-549, 48 h
[54] = tested on: T47D; assay: Growth inhibition of human T47D cells incubated for 48 hrs by sulforhodamine B assay
[55] = tested on: MDA-MB-468; assay: Growth inhibition of human MDA-MB-468 cells incubated for 48 hrs by sulforhodamine B assay; conditions: MDA-MB-468, 48 h

CNC(=O)c1cc(Oc2ccc(NC(=O)Nc3ccc(Cl)c(C(F)(F)F)c3)cc2)ccn1 [SORAFENIB]
GI50 [1]: 2 µM | TGI [1]: 5.01 µM | TGI [2]: 100 µM | TGI [3]: 100 µM | TGI [4]: 3.16 µM | TGI [5]: 63.1 µM | TGI [6]: 7.94 µM | TGI [7]: 19.9 µM | GI50 [8]: 2 µM | TGI [8]: 3.16 µM | GI50 [9]: 2 µM | TGI [9]: 3.16 µM | GI50 [10]: 2 µM | TGI [11]: 5.01 µM | TGI [12]: 5.01 µM | GI50 [13]: 2 µM | TGI [13]: 5.01 µM | GI50 [14]: 2 µM | TGI [14]: 3.16 µM | TGI [15]: 2.51 µM | TGI [16]: 3.16 µM | GI50 [17]: 2 µM | TGI [17]: 5.01 µM | TGI [18]: 2.51 µM | TGI [19]: 5.01 µM | TGI [20]: 3.98 µM | TGI [21]: 6.31 µM | TGI [22]: 2.51 µM | TGI [23]: 3.98 µM | TGI [24]: 3.98 µM | GI50 [25]: 2 µM | TGI [25]: 3.16 µM | TGI [26]: 2.51 µM | GI50 [27]: 2 µM | TGI [27]: 39.8 µM | GI50 [28]: 2 µM | TGI [28]: 3.16 µM | TGI [29]: 5.01 µM | GI50 [30]: 2 µM | TGI [30]: 6.31 µM | TGI [31]: 2.51 µM | TGI [32]: 2.51 µM | GI50 [33]: 2 µM | TGI [34]: 2.51 µM | TGI [35]: 10 µM | TGI [36]: 3.98 µM | TGI [37]: 25.1 µM | TGI [38]: 6.31 µM | GI50 [39]: 3.16 µM | TGI [39]: 12.6 µM | TGI [40]: 5.01 µM | TGI [41]: 5.01 µM | TGI [42]: 3.16 µM | TGI [43]: 10 µM | TGI [44]: 12.6 µM | TGI [45]: 5.01 µM | TGI [46]: 3.16 µM | TGI [47]: 10 µM | TGI [48]: 6.31 µM | GI50 [49]: 2 µM | TGI [49]: 5.01 µM | TGI [50]: 7.94 µM | TGI [51]: 3.16 µM | TGI [52]: 3.98 µM | TGI [53]: 3.98 µM | TGI [54]: 5.01 µM | GI50 [55]: 2 µM | TGI [55]: 5.01 µM
